Experimental data from patent US20220133701A1, “METHODS OF TREATING PAIN” (Yeda Research and Development Co. Ltd., priority 2019, published 2022).
“Also recorded” adds a separate entry of the source.

T1: importin α3 (endogenous, mouse DRG sensory neurons) (mouse, UniProt O35343 2-521)
T1 construct: whole, on cells; Endogenous protein detected in fixed neurons with a rabbit polyclonal anti-importin α3 antibody in the proximity ligation assay; The protein is intracellular, not on the cell surface; also called Impα3; Karyopherin Subunit Alpha 4
T1 sequence (looked up): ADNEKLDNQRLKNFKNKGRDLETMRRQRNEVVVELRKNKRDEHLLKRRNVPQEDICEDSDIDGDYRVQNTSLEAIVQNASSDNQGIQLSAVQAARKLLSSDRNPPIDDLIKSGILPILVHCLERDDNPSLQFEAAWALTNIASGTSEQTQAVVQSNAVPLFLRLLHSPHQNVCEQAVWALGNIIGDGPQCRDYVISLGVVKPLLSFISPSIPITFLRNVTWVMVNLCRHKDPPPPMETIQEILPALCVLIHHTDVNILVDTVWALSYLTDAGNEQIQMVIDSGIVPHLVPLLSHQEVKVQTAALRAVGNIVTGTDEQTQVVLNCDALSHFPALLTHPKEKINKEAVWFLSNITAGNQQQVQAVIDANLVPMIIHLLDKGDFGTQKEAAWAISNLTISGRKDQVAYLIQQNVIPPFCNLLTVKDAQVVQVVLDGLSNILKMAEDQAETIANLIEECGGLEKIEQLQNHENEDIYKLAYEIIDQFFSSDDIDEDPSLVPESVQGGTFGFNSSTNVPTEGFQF

B1: c-Fos (other, mouse, UniProt P01101 1-380, looked up)
chain: MMFSGFNADYEASSSRCSSASPAGDSLSYYHSPADSFSSMGSPVNTQDFCADLSVSSANFIPTVTAISTSPDLQWLVQPTLVSSVAPSQTRAPHPYGLPTQSAGAYARAGMVKTVSGGRAQSIGRRGKVEQLSPEEEEKRRIRRERNKMAAAKCRNRRRELTDTLQAETDQLEDEKSALQTEIANLLKEKEKLEFILAAHRPACKIPDDLGFPEEMSVASLDLTGGLPEASTPESEEAFTLPLLNDPEPKPSLEPVKSISNVELKAEPFDDFLFPASSRPSGSETSRSVPDVDLSGSFYAADWEPLHSNSLGMGPMVTELEPLCTPVVTCTPGCTTYTSSFVFTYPEADSFPSCAAAHRKGSSSNEPSSDSLSSPTLLAL
notes: whole, on cells; Endogenous protein in both assays; The protein is intracellular, not on the cell surface
B2: shFOS1: AAV9 shRNA targeting c-Fos, SEQ ID NO: 17 (nucleic acid)
DNA: GATCCGGCGGAGACAGATCAACTTGAAGAAGCTTGTTCAAGTTGATCTGTCTCCGCCTTTTTTT

Assays:
[1] = system: mice; assay: Response to noxious heat (metal probe heated to 58° C. applied to paw, paw withdrawal latency); type: in vivo, mouse; details: for responsiveness to noxious heat: WT mice, 1 hour following i.p. injection, sulmazole 0.5 mg/kg, sulfamethizole 1.25 mg/kg (FIG. 8A)
Protocol: Pain Models—Responses to noxious heat were assessed by applying a metal probe heated to 58° C. to a forelimb paw, while holding the animal. Paw withdrawal latency was timed, typically ranging between 2-4 seconds in wild-type animals. If the paw was not withdrawn within 20 seconds the assay was terminated. The test was repeated three times for each animal, with at least 20 minute intervals between repeats. Heat sensitivity was also assessed using the hot plate test [L. Urien et al., Sci Rep 7, 43493 (2017)]. To this end, mice were placed individually in a 20 cm high Plexiglas box on a metal surface set at 52, 55 or 58° C., and the latency to initiate a nociceptive response (licking, hind paws shaking, jumping) was monitored by videotape. Mice were removed from the plate immediately after a nociceptive response.

[2] = system: SNI mice; assay: Spared nerve injury (SNI) model of neuropathic pain, paw withdrawal threshold (PWT) by Von Frey test; type: in vivo, mouse; details: for paw withdrawal threshold (PWT) by the Von Frey test: SNI, 60 days following establishing the model, two i.p. injections with 1 week interval, sulmazole 1.25 mg/kg, sulfamethizole 3.12 mg/kg, vs vehicle (FIG. 8B); for relief in the SNI model of neuropathic pain: intraperitoneal injection at both early and late stages of chronic pain (FIGS. 8B, 21A-B, 22A-B); for mechanosensitivity, paw withdrawal threshold by Von Frey test, dose dependence: one hour following i.p. treatment, one week following establishing SNI (FIGS. 21A-B); for mechanosensitivity, Von Frey tests, time dependence: one week after SNI, 1, 5 and 24 hours following i.p. injection (FIGS. 22A-B)
Protocol: (§1) Chronic neuropathic pain was assessed using the spared nerve injury (SNI) model^13. Mice were anaesthetized with Ketamine/Xylazine (10 mg/kg body weight, intraperitoneal). The skin on the lateral surface of the thigh was incised and a section was made directly through the biceps femoris muscle in order to expose the sciatic nerve and its three terminal branches: the sural, common peroneal and tibial nerves. The SNI procedure comprised an axotomy and ligation of the tibial and common peroneal nerves leaving the sural nerve intact. The peroneal and the tibial nerves were tight-ligated and sectioned distal to the ligation. […] Following, mice were evaluated over a period of three months.
(§2) Von Frey tests of sensitivity to mechanical stimuli were conducted as previously described [Marvaldi et al. Dev Neurobiol 75, 217 (2015)]. Briefly, mice were placed in acrylic chambers suspended above a wire mesh grid and allowed to habituate to the testing apparatus for one hour prior to experiments. When the mouse was calm, the von Frey filaments were pressed against the plantar surface of the paw until the filament buckled and held for a maximum of 3 seconds. A positive response was noted if the paw was sharply withdrawn on application of the filament. Testing began with filament target force 13.7 milliNewtons and progressed according to an up-down method. 2 gram Von Frey filaments were used to assess sensitivity to noxious mechanical stimulation, scoring mice responses as follows: 0, no response; 1, visible signs of discomfort without leg withdrawal; 2, withdrawal of the leg.

[3] = system: SNI mice; assay: Noxious mechanosensitivity of SNI mice, Von Frey filaments of 2 grams force, score 0-2; type: in vivo, mouse; details: score 0 to 2 (FIG. 22C)
Protocol: as §1
as §2, with “2 gram Von Frey filaments were used to assess sensitivity to noxious mechanical stimulation, scoring mice responses as follows: 0, no response; 1, visible signs of discomfort without leg withdrawal; 2, withdrawal of the leg.” left out

[4] = system: c-Fos nuclear localization in DRG neurons; assay: c-Fos nuclear localization in cultured DRG neurons (immunostaining, quantified); type: cell-based, mouse; details: sulmazole 0.5 mg/kg; for c-Fos nuclear accumulation: importin α3 null DRG neurons cultured following SNI, sulfamethizole 1.25 mg/kg (FIG. 9); for c-Fos nuclear localization: wild type DRG neurons cultured following SNI, sulfamethizole 1.25 mg/kg, vs vehicle (FIGS. 8C-D)
Protocol: Histology—Lumbar sections of the spinal cord including Dorsal root ganglia (DRGs) were pre-fixed for 6 minutes before dissection of spinal cord and associated DRGs. Lumbar DRG (L4, unless otherwise indicated) and/or spinal cord were then fixed for six hours in 4% PFA in PBS, washed in PBS and equilibrated in 20% w/v sucrose in PBS prior to serial cryo-sectioning at a thickness of 10-20 μm. Following, one set for each DRG was processed for immunostaining. Briefly, sections were rehydrated in PBS, blocked and permeabilized with 15% Donkey Serum, 5-10% BSA, 0.3% Triton X-100 in PBS for 1-3 hours and incubated overnight at 4° C. with Mouse anti-βIII tubulin (TuJ1, abcam, ab18207), Rabbit anti-cFos (Millipore, Ab5, 4-17), Mouse anti-cFOS (Millipore Ab5 4-17, IF 1:500), Mouse anti-Jun (BD transduction Laboratories, IF 1:1000), Rabbit TRPV1 (Alomone ACC-030, 1:500), Rabbit anti-GFP (abcam, ab6556, IF & WB1:500), Goat anti-CGRP (AbD SEROTEC, 1720-9007), MBP (Abcam ab7349, IF 1:500) or Rabbit anti-importin α3 (1:2000) antibodies. On the following day, sections were washed three times in PBS prior to incubation for 2 hours with different combinations of donkey anti-chicken/rabbit/mouse secondary antibodies (Alexa Fluor 647, 594, 488; Jackson Immunoresearch, 1:1000). Following, coverslips or slides were washed and mounted with Flouromount-G™.
Image processing—Images were acquired on a confocal laser-scanning microscope (Olympus FV1000, 60× oil-immersion objective Olympus UPLSAPO-NA 1.35) using Fluoview (FV10-ASW 4.1) software. DRG sections were scanned using camera settings identical for all genotypes in a given experiment. Images were imported into the Fiji version (www(dot)//fiji(dot)sc) of ImageJ for threshold subtraction and subsequent analyses as detailed below.
Fluorescence Intensity Analysis: Line scan analysis of fluorescence intensity was carried out on high-resolution confocal z-stack from DRG sections to determine fluorescence intensity of c-FOS and importin α3 over cell regions of interest in-vivo. Briefly, the measurement (in pixels) was effected using the ImageJ drawing tool to draw a line across a neuronal segment covering both cytoplasm and nucleus. All collected traces were then averaged for each experimental group. For comparison of nuclear and cytoplasmic staining intensity 8-bit images of either DRG sections or DRG cultured neurons were processed using the Fiji software. The integrated density was calculated as the sum of the values of the pixels in both cytoplasmic and nuclear regions of interest determined on the basis of TuJ-1, CGRP, TRPV1 or DAPI staining, respectively.
Neuronal cultures—Adult mouse DRG neurons were cultured as previously described [Perry et al. Neuron 75, 294 (2012)], with plating on poly-L-lysine and laminin coated plates or glass cover slips for 24 hours. Where required, L3-L5 DRG neurons from the uninjured side served as controls for cultures from SNI mice.

[5] = target: T1, importin α3 (endogenous, mouse DRG …); assay: proximity ligation assay of endogenous proteins in cultured DRG sensory neurons
Protocol: Proximity Ligation Assay (PLA) in DRG cultures—The Proximity Ligation Assay (PLA) is used to detect spatial proximity within ˜40 nm of two proteins of interest [O. Söderberg et al., Nature Methods 3, 995-1000 (2006)]. DRG neurons were cultured for 24 hours and fixed for 20 minutes in 4% PFA before blocking and permeabilization with 5% Donkey Serum, 1% BSA, 0. 1% Triton X-100 in PBS for 1 hour. They were then incubated with anti-c-Fos (mouse monocolonal 1:1000, Abcam ab208942) and anti-importin α3 (rabbit polyclonal, 1:2000, Michael Bader lab′, MDC Berlin) overnight at 4° C. PLA was performed using Duolink (Sigma: PLA probe anti-mouse minus DU092004, anti-rabbit plus DU092002 with detection using Far-Red DU092013), according to the manufacturer's instructions. Identification of PLA signal within neurons was effected by subsequent immunostaining with goat anti-CGRP (AbD SEROTEC 1720-9007, IF 1:1000) for 60 minutes at room temperature, followed by three washes and an additional 60 minutes incubation with donkey anti-goat Alexa Fluor 488 (Jackson Immunoresearch, 1:1000). Cells were then washed, mounted with Flouromount-G (ThermoFisher Scientific, cat. #00-4958-02) and imaged by confocal microscopy (Olympus FV1000, 60× oil-immersion objective Olympus UPLSAPO-NA 1.35). PLA signals were quantified by counting puncta in ImageJ. […]

Molecule | responsiveness to noxious heat [1] | paw withdrawal threshold (PWT) by the Von Frey test [2] | relief in the SNI model of neuropathic pain [2] | mechanosensitivity, paw withdrawal threshold by Von Frey test, dose dependence [2] | mechanosensitivity, Von Frey tests, time dependence [2] | response of SNI injured animals to a noxious mechanical stimulus [3] | c-Fos nuclear accumulation [4] | c-Fos nuclear localization [4] | other results
O=C(O)CCc1cc(C(=O)c2ccc(OC3CCCC3)cc2O)ccc1OCc1ccc2c(=O)[nH]oc2c1 [T-5224] | – | – | – | – | – | – | – | – | response to noxious heat ([1]; WT (+/+) mice, 20 mg/kg, i.p. (FIGS. 6J-K)): reduced the response to noxious heat; response to noxious heat ([1]; importin α3 null (−/−) mice, 20 mg/kg, i.p. (FIGS. 6J-K)): no additional effect beyond the already existing attenuation; paw withdrawal threshold (PWT) in response to noxious heat ([1]; wild-type mice, i.p. at the indicated doses, over eight days post-treatment (FIGS. 7A-B)): reduced paw withdrawal in response to noxious heat; also recorded: most marked effect was observed one day following injection of a dose of 10 mg/kg; paw withdrawal in Von Frey tests ([2]; wild type animals one week following induction of SNI, 10 mg/kg (FIG. 18)): did ameliorate the paw withdrawal latency
NCC1(CC(=O)O)CCCCC1 [gabapentin] | – | – | – | – | – | – | – | – | paw withdrawal threshold (PWT) in Von Frey tests ([2]; SNI mice, 100 mg/kg intraperitoneal two months following establishment of the model, again one week later (FIG. 2D)): significant amelioration of the phenotype
Cc1nnc(NS(=O)(=O)c2ccc(N)cc2)s1 [sulfamethizole, 4-Amino-N-(5-methyl-1,3,4-thiadiazol-2-yl)benzenesulfonamide] | showed efficacy in the assay | significant effects | time and dose-dependent relief | dose dependent effects | time dependent effects | provided relief in this assay that was comparable to that provided by knockout or knockdown of importin α3 | neither drug had any further effect | significantly reduced c-Fos nuclear accumulation | c-Fos nuclear localization ([4]; listed as Sulfamethizole): Significant reductions in c-Fos nuclear localization
COc1cc([S+](C)[O-])ccc1-c1nc2ncccc2[nH]1 (stereo not shown) [sulmazole, 2-(2-Methoxy-4-[methylsulfinyl]phenyl)-1H-imidazo(4,5-b)pyridine] | showed efficacy in the assay | significant effects | time and dose-dependent relief | dose dependent effects | time dependent effects | provided relief in this assay that was comparable to that provided by knockout or knockdown of importin α3 | neither drug had any further effect | significantly reduced c-Fos nuclear accumulation | c-Fos nuclear localization ([4]; listed as Sulmazole): Significant reductions in c-Fos nuclear localization
B1 | – | – | – | – | – | – | – | – | binding result [5]: binds
B2 | – | – | – | – | – | – | – | – | response to noxious heat ([1]; wild type mice after intrathecal injection of AAV9 construct, vs control construct): reduced noxious heat responses
